By IC50 is commonly meant the concentration that gives 50% inhibition. Broadly, the GI50 is the concentration at which growth is held to half of that of the control.

The structures appear in SMILES notation.

The results in this text go back to patent US9120789B2, “1-(5-tert-butyl-2-phenyl-2H-pyrazol-3-yl)-3-[2-fluoro-4-(1-methyl-2-oxo-2,3-dihydro-1H-imidazo[4,5-b]pyridin-7-yloxy)-phenyl]-urea and related compounds and their use in therapy” (CANCER RESEARCH TECHNOLOGY LIMITED, priority 2010, dated 2015).

One experiment deals with B-RAF (Homo sapiens, UniProt P15056). Put plainly: Assay A - DELFIA kinase assay. The class given is biochemical. Conditions: 100 μM ATP; mean of usually three assays; read-out: Assay A BRAF IC50. On the procedure:
Biological Methods—Assay A—DELFIA Kinase Assay
Compounds were assessed by a kinase assay performed according to the following protocol.
The following reagents were prepared:
DELFIA Kinase Buffer (DKB):
DKB1 (DKB with B-RAF and MEK Protein):
Combine 4950 μL of DKB and 50 μL of 2.5 mg/mL GST-MEK stock (to give 1 mg of MEK per 40 μL). Then add 22.5 μL of B-RAF to give ˜0.2 μL of B-RAF per 40 μL.
DKB2 (DKB with MEK Protein):
Combine 4950 μL of DKB and 50 μL of 2.5 mg/mL GST-MEK stock (to give […] of MEK per 40 μL). Use 500 μL of this for the blow out (BO) and the empty vector (EV) control.
100 mM stock, dilute to 500 μM to give 100 μM final concentration in assay.
Inhibitors (Test Compounds):
Phospho-MEK1/2 CST #9121S diluted 1:1000 in DELFIA assay buffer (AB). Pre-incubate antibody in the AB for 30 minutes at room temperature prior to use.
Anti-rabbit-Eur labelled secondary Perkin Elmer #AD0105 diluted 1:1000 in DELFIA assay buffer (AB). Pre-incubate antibody in the AB for 30 minutes at room temperature prior to use. (Primary and secondary antibodies were incubated together.)
DELFIA assay buffer Perkin Elmer #4002-0010.
DELFIA enhancement solution Perkin Elmer #4001-0010.
96 well glutathione-coated black plate Perbio #15340.
1. Preblock wells with 5% milk in TBS for 1 hour.
2. Wash wells 3× with 200 μL TBS.
3. Plate out 40 μL of DKB1 for all inhibitors (test compounds), DMSO control, and optionally other control compounds.
4. Plate out 40 μL of DKB2 for BO and EV wells.
5. Add inhibitors (test compounds) at 0.5 μL per well according to desired plate layout.
6. Add 0.5 μL DMSO to vehicle control wells.
7. Add 2 μL of B-RAF to BO and EV wells.
8. Pre-incubate with inhibitors (test compounds) for 10 minutes at room temperature with shaking.
9. Add 10 μL of 500 μM ATP stock, in DKB, to give 100 μM assay concentration.
10. Seal plates with TopSeal and incubate at room temperature with shaking for 45 minutes.
11. Wash plates 3× with 200 μL 0.1% Tween20/Water to terminate reaction.
12. Add 50 μL per well of antibody mix and incubate for 1 hour at room temperature with shaking.
13. Wash plates 3× with 200 μL 0.1% Tween20/Water.
14. Add 100 μL DELFIA enhancement solution per well, cover in foil, and incubate at room temperature for 30 minutes with shaking.
15. Read on Victor using Europium protocol.
(§1) Values for the blank (Empty Vector) are subtracted from all values. The DMSO controls are set as 100% activity and assay points (the response) are calculated as a percentage of the DMSO control. Data are plotted using Graphpad Prism software and a non-linear regression line is calculated using a variable slope sigmoidal dose-response equation: Y=Bottom+[Top−Bottom]/[1+10^((Log EC50−X)*HillSlope)] where X is the logarithm of concentration and Y is the response. The IC50 generated by this procedure is the concentration of the drug that produces a percentage control fluorescence value midway between the saturation, and zero-effect plateaus. Three independent assays are usually performed and the mean IC50 is reported. Biological Methods—Assay B—Cell Based Phosho-ERK Assay

Experiment [1] concerns pERK in mutant BRAF WM266.4 cells. Put plainly: Assay B - cell based phospho-ERK assay. To be noted: Homo sapiens, WM 266-4, 6 hours incubation. On the procedure:
as §1
Compounds were assessed using a cell-based assay which was performed according to the following protocol.
Plate out 16,000 mutant BRAF WM266.4 cells/well in 99 μL medium in a 96-well plate.
1. Add 1 μL inhibitor (test compound) to the cells (total […]).
2. Incubate the cells with test compound for 6 hours at 37° C.
3. Aspirate off the solution from all of the wells.
4. Fixate the cells with 100 μL 4% formaldehyde/0.25% Triton X-100 PBS per well.
5. Incubate the plate for 1 hour at 4° C.
6. Aspirate off the fixing solution and add 300 μL TBS per well.
7. Leave the plate overnight at 4° C.
1. Wash the plate 2× with 200 μL PBS per well.
2. Block with 100 μL 5% dried milk in TBS.
3. Incubate the plate for 20 minutes at 37° C.
4. Wash the plate 2× with 0.1% tween/H2O.
5. Add 50 μL of 3 μg/mL primary antibody pERK (Sigma M8159), diluted in 5% milk powder/TBS, to each well.
6. Incubate the plate for 2 hours at 37° C.
7. Wash the plate 3× with 0.1% tween/H2O.
8. Add 50 μL of 0.45 μg/mL secondary Europium-labelled anti-mouse antibody (Perkin Elmer) to each well.
9. Incubate the plate for 1 hour at 37° C.
10. Wash the plate 3× with 0.1% tween/H2O.
11. Add 100 μL enhancement solution (Perkin Elmer) to each well.
12. Leave the plate for approximately 10 minutes at room temperature before gently shaking the plate.
13. Read Europium Time Resolved Fluorescence in Victor2.
14. Wash the plate 2× with 0.1% tween/H2O.
15. Measure the protein concentration with BCA (Sigma) by adding 200 μL of solution per well.
16. Incubate the plate for 30 minutes at 37° C.
17. Read absorbance levels at 570 nm in a plate reader.
Note that Europium counts are normalised for protein levels by dividing counts by absorbance.
as §1, with “blank (no cells)” for “blank (Empty Vector)”, “the response).” for “the response.”, “Methods—Assay C—SRB Cell Proliferation” for “Methods—Assay B—Cell Based Phosho-ERK”, “Assay (SRB GI50)” for “Assay”

Experiment [2] relates to WM266.4 melanoma cell line (mutant BRAF). Briefly: Assay C - SRB cell proliferation assay, WM266.4. It counts as cell-based. To be noted: Homo sapiens, WM 266-4, 120 h; WM266.4, 5 days growth. On the procedure: as §1, with “blank (no cells)” for “blank (Empty Vector)”, “the response).” for “the response.”, “Methods—Assay C—SRB Cell Proliferation” for “Methods—Assay B—Cell Based Phosho-ERK”, “Assay (SRB GI50)” for “Assay”
Cell lines (e.g., WM266.4 and A375M melanoma cell lines; SW620 colorectal carcinoma cell line) are routinely cultured in DMEM or RPMI1640 supplemented with 10% foetal bovine serum, at 37° C., in 10% CO2 water saturated atmosphere. Cultures are maintained in exponential growth phase by sub-culturing before having become confluent (3-5 day intervals). Single cell suspensions are prepared by harvesting an 80 cm^2 tissue culture flask with 5 mL commercial trypsin EDTA. After 5 minutes, the detached cells are mixed with 5 mL fully complemented culture medium and centrifugally pelleted (1000 rpm for 7 minutes). After aspirating the supernatant, the cell pellet is re-suspended in 10 mL fresh medium and the cells fully disaggregated by drawing the whole volume up/down 5 times through a 19-gauge needle. The concentration of the cells is determined using a haemocytometer ( 1/10 dilution). A suitable volume to give at least a 2-fold excess for the number of tests being conducted, typically 100-200 mL, is prepared by diluting the cell suspension to 10,000-40,000/mL, and 100 μL/well dispensed into 96 well plates using a programmable 8-channel peristaltic pump, giving 1000-4000 cells/well, leaving column 12 blank. The plates are returned to the incubator for 24 hours to allow the cells to re-attach.
The compounds being tested are prepared at 10 mM in DMSO. Aliquots (24 μL) are diluted into 1.2 mL culture medium giving 200 μM, and 10 serial dilutions of 3× performed by transferring 80 μL to 160 μL. Aliquots (100 μL) of each dilution are added to the wells, using an 8-channel pipettor, thus performing a final further 2× dilution, and giving doses ranging from 100 μM to 0.005 μM. Column 11 receives plain culture medium only. Each compound is tested in quadruplicate, each replicate being the average of four wells.
After a further 5 days growth, the plates are emptied, and the cells are fixed in 10% trichloroacteic acid for 30 minutes at 4° C. After thorough rinsing in running tap water, the plates are dried, and stained by adding 50 μL of a solution of 0.1% sulphorhodamine-B in 1% acetic acid, for 10 minutes at room temperature. The stain is poured out and the plates thoroughly rinsed under a stream of 1% acetic acid, thus removing unbound stain, and dried. The bound stain is taken into solution by addition of 100 μL Tris buffer pH 8, followed by 10 minutes on a plate-shaker (approximately 500 rpm). The absorbance at 540 nm in each well (being proportional to the number of cells present) is determined using a plate reader.
After averaging the blank values in column 12 this was subtracted from all values, and results expressed as a percentage of the untreated value (column 11). […] The GI50 generated by this procedure is the concentration of the drug that produces a percentage control A540 midway between the saturation, and zero-effect plateaus.

B-RAF, sequence (P15056 whole entry): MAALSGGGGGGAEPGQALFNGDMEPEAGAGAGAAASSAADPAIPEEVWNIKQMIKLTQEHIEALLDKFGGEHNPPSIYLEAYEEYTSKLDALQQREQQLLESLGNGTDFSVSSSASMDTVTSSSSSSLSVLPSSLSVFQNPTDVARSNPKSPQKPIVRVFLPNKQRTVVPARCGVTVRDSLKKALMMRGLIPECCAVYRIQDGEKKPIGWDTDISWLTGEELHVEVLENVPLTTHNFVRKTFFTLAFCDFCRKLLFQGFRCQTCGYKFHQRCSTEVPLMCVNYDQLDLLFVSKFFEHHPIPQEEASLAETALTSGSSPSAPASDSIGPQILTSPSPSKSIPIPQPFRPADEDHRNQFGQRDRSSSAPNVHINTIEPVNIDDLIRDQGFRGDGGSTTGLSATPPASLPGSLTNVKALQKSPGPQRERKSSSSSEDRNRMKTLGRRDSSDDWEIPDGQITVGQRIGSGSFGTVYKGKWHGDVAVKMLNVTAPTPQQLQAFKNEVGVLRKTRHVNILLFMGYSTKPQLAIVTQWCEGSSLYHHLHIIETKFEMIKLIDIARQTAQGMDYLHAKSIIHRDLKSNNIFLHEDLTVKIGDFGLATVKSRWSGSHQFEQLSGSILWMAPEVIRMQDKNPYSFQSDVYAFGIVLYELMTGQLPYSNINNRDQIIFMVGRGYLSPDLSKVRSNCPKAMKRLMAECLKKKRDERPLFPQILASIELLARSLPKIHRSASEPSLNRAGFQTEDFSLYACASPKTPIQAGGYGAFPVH

Turning to `Cn1c(=O)[nH]c2nccc(Oc3ccc(NC(=O)Nc4cc(C(C)(C)C)nn4-c4ccc(Cl)cc4)c(F)c3)c21` [AA-03, 1-(3-Tert-butyl-1-(4-chlorophenyl)-1H-pyrazol-5-yl)-3-(2-fluoro-4-(1-N-methyl-2-oxo-2,3-dihydro-1H-imidazo[4,5-b]pyridin-7-yloxy)phenyl)urea], the IC50 at B-RAF is 0.302 µM; in experiment [1] it was 0.06 µM. In addition, it took 0.121 µM to inhibit growth in experiment [2] by half (GI50).
In the same order, the values of `Cc1ccc(-n2nc(C(C)(C)C)cc2NC(=O)Nc2ccc(Oc3ccnc4[nH]c(=O)n(C)c34)cc2F)cc1` [AA-02, 1-(3-Tert-butyl-1-p-tolyl-1H-pyrazol-5-yl)-3-(2-fluoro-4-(1-N-methyl-2-oxo-2,3-dihydro-1H-imidazo[4,5-b]pyridin-7-yloxy)phenyl)urea] are 0.197 µM, 0.02 µM and 0.057 µM.
